Reference: patent publication US5166213A, “4-pyridyl substituted-1,3-dioxane compounds” (Imperial Chemical Industries PLC, priority 1988, dated 1992)

What was measured:
TXA2 synthase [1] = assay: test (f): TXB2 production in blood samples from dosed rats; format: in vivo, rat; conditions: oral dose of 25 mg/kg, up to 5 hours
Protocol: The samples treated with anti-coagulant are first incubated at 37° C. with collagen (at about 100 micro M), then mixed with the cyclooxygenase inhibitor indomethacin (at about 10^-3 M), centrifuged and the level of the TXA2 metabolite, TXB2, determined by a standard radioimmunoassay technique. By comparison of the amount of TXB2 present in the plasma from animals dosed with test compound with that in the plasma of a control group dosed with placebo, the TXA2 synthase inhibitory properties may be assessed.

TXA2 synthase [2] = molecular target: T1, TXA2 synthase (Homo sapiens, UniProt P24557); assay: test (e): in vitro inhibition of human platelet microsomal TXA2 synthase (conversion of [1-^14 C]arachidonic acid to TXB2); format: biochemical
T1 construct: using a human platelet microsomal TXA2 synthase preparation; from tissue; host or cells: human platelet microsomes
T1 sequence (P24557 1-533): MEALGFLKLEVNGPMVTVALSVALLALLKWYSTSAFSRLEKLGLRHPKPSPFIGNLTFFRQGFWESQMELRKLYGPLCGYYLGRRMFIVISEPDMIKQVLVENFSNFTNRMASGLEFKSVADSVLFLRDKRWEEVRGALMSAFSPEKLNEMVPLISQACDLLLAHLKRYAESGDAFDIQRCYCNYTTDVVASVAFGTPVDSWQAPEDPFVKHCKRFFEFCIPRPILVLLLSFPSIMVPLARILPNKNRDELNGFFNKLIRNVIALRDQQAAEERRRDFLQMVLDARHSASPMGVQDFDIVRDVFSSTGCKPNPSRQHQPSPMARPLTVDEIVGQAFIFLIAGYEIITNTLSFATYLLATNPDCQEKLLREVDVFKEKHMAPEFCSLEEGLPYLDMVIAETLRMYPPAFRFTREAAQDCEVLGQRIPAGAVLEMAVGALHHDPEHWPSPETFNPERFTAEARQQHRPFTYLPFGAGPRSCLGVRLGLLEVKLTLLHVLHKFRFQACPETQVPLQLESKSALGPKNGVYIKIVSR

[3] = observable signs of toxicity in test (f), rats; format: in vivo, rat; conditions: oral dose of 25 mg/kg
thromboxane receptor = molecular target: T2, thromboxane receptor (Homo sapiens, UniProt P21731); assay: test (b): blood platelet aggregation, antagonism of U46619 in citrated platelet-rich plasma; format: cell-based; conditions: Example 2, unit inferred
T2 construct: aggregating human, citrated, platelet-rich plasma; from tissue; host or cells: human platelets (citrated platelet-rich plasma)
T2 sequence (P21731 1-343): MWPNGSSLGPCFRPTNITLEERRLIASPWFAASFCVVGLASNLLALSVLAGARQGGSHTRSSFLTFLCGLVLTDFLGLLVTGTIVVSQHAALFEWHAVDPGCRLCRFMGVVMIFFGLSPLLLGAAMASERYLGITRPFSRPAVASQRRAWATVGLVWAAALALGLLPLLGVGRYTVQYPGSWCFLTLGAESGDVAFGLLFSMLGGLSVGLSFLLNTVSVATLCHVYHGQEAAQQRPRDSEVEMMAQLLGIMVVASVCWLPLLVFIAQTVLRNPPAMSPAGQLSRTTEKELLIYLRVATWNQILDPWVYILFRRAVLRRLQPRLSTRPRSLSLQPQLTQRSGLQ
Excerpt: (b) a blood platelet aggregation test based on that described by Born (Nature, 1962, 194, 927-929) and involving:
(i) aggregating human, citrated, platelet-rich plasma by addition of the TXA2 mimetic agent U46619 so that a dose-response curve is generated;
(ii) generating a dose-response curve for U46619 stimulated platelet aggregation in the presence of increasing amounts of test compound (generally in the range 10^-5 M to 10^-10 M); and
(iii) calculating a KB value indicating potency of TXA2 antagonism for the test compound, averaged over several concentrations, from the calculated 50% response value for U46619 aggregation in the presence and absence of test compound; or […]

For `O=C(O)CC/C=C\C[C@@H]1CO[C@H](c2ccccc2Cl)O[C@@H]1c1cccnc1` (relative stereo) [Example 2, 4(Z)-6-[(2,4,5-cis)-2-(2-chlorophenyl)-4-(3-pyridyl)-1,3-dioxan-5-yl]hexenoic acid], which “inhibition of TXB2 production” value (TXA2 synthase [1]) is on record?
The value was “essentially complete inhibition of TXB2 production”.

And the IC50 (TXA2 synthase [2])?
The IC50 was 48 nM.

And the “observable signs of toxicity” value [3]?
Its value is “without any observable signs of toxicity”.

And the Kb (thromboxane receptor)?
The Kb was 650 nM.
